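Test compounds were applied to cells in 96-well plates for 48 hours at 5 doses. GI50 is the concentration that inhibits growth by half. TGI: total growth inhibition.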 Where a SMILES comes first, the peptide text is derived from it. [ ]: non-standard residue; d: D form. The star is where a group is joined. X13 = OC[C@H](CC1CCCCC1)N*; Aib = CC(C)(N)C(=O)O
Key:
Assay in all cases: DTP human tumour cell line panel, 48 h
[1] = tested on: 786-0 renal
[2] = tested on: A498 renal
[3] = tested on: A549 NSCLC
[4] = tested on: ACHN renal
[5] = tested on: BT-549 breast
[6] = tested on: CCRF-CEM leukemia
[7] = tested on: COLO 205 colon
[8] = tested on: DU-145 prostate
[9] = tested on: EKVX NSCLC
[10] = tested on: HCC-2998 colon
[11] = tested on: HCT-116 colon
[12] = tested on: HCT-15 colon
[13] = tested on: HL-60(TB) leukemia
[14] = tested on: HOP-62 NSCLC
[15] = tested on: HOP-92 NSCLC
[16] = tested on: HS 578T breast
[17] = tested on: HT29 colon
[18] = tested on: IGROV1 ovarian
[19] = tested on: K-562 leukemia
[20] = tested on: KM12 colon
[21] = tested on: LOX IMVI melanoma
[22] = tested on: M14 melanoma
[23] = tested on: MALME-3M melanoma
[24] = tested on: MCF7 breast
[25] = tested on: MDA-MB-231 breast
[26] = tested on: MDA-MB-435
[27] = tested on: MOLT-4 leukemia
[28] = tested on: NCI-H226 lung
[29] = tested on: NCI-H23 lung
[30] = tested on: NCI-H460 lung
[31] = tested on: NCI-H522 lung
[32] = tested on: NCI/ADR-RES ovarian
[33] = tested on: OVCAR-3 ovarian
[34] = tested on: OVCAR-4 ovarian
[35] = tested on: OVCAR-5 ovarian
[36] = tested on: OVCAR-8 ovarian
[37] = tested on: PC-3 prostate
[38] = tested on: RPMI-8226 leukemia
[39] = tested on: RXF 393 renal
[40] = tested on: SF-268 CNS
[41] = tested on: SF-295 CNS
[42] = tested on: SF-539 CNS
[43] = tested on: SK-MEL-2 melanoma
[44] = tested on: SK-MEL-28 melanoma
[45] = tested on: SK-MEL-5 melanoma
[46] = tested on: SK-OV-3 ovarian
[47] = tested on: SN12C renal
[48] = tested on: SNB-19 CNS
[49] = tested on: SNB-75 CNS
[50] = tested on: SR leukemia
[51] = tested on: SW-620 colon
[52] = tested on: T-47D breast
[53] = tested on: TK-10 renal
[54] = tested on: U251 CNS
[55] = tested on: UACC-257 melanoma
[56] = tested on: UACC-62 melanoma
[57] = tested on: UO-31 renal

With `CC(=O)NC(C)(C)C(=O)N[C@@H](C)C(=O)NC(C)(C)C(=O)N[C@@H](C)C(=O)NC(C)(C)C(=O)N[C@@H](C)C(=O)N[C@@H](CCC(N)=O)C(=O)NC(C)(C)C(=O)N[C@H](C(=O)NC(C)(C)C(=O)NCC(=O)N[C@@H](CC(C)C)C(=O)NC(C)(C)C(=O)N1CCC[C@H]1C(=O)N[C@H](C(=O)NC(C)(C)C(=O)NC(C)(C)C(=O)N[C@@H](CCC(N)=O)C(=O)N[C@@H](CCC(N)=O)C(=O)N[C@H](CO)CC1CCCCC1)C(C)C)C(C)C` (Ac-[Aib]A[Aib]A[Aib]AQ[Aib]V[Aib]GL[Aib]PV[Aib][Aib]QQ-X13) the GI50 [1] was > 5000 nM, the TGI [1] was > 5000 nM and the GI50 [2] was > 4120 nM. The TGI [2] was > 5000 nM, the GI50 [3] was > 5000 nM and the TGI [3] was > 5000 nM. For the same molecule, the GI50 [4] was > 5000 nM, the TGI [4] was > 5000 nM and the GI50 [5] was 1430 nM. The TGI [5] was > 5000 nM, the GI50 [6] was > 4800 nM and the TGI [6] was > 5000 nM. The GI50 [7] was 178 nM, the TGI [7] was 1220 nM and the GI50 [8] was 1330 nM. The TGI [8] was > 5000 nM, the GI50 [9] was 2290 nM and the TGI [9] was > 5000 nM. The GI50 [10] was 2910 nM, the TGI [10] was > 5000 nM and the GI50 [11] was 2040 nM. For the same molecule, the TGI [11] was > 5000 nM, the GI50 [12] was > 5000 nM and the TGI [12] was > 5000 nM. The GI50 [13] was 1300 nM, the TGI [13] was > 5000 nM and the GI50 [14] was > 5000 nM. The TGI [14] was > 5000 nM, the GI50 [15] was 1010 nM and the TGI [15] was 3800 nM. The GI50 [16] was 3710 nM, the TGI [16] was > 5000 nM and the GI50 [17] was 286 nM. The TGI [17] was > 5000 nM, the GI50 [18] was 3060 nM and the TGI [18] was > 5000 nM. The GI50 [19] was 2200 nM, the TGI [19] was > 5000 nM and the GI50 [20] was > 4100 nM. The TGI [20] was > 5000 nM, the GI50 [21] was 1560 nM and the TGI [21] was > 5000 nM. For the same molecule, the GI50 [22] was 221 nM, the TGI [22] was > 5000 nM and the GI50 [23] was 30.6 nM. For the same molecule, the TGI [23] was 239 nM, the GI50 [24] was 399 nM and the TGI [24] was > 5000 nM. For the same molecule, the GI50 [25] was 2490 nM, the TGI [25] was > 5000 nM and the GI50 [26] was 834 nM. For the same molecule, the TGI [26] was > 5000 nM, the GI50 [27] was > 5000 nM and the TGI [27] was > 5000 nM. For the same molecule, the GI50 [28] was 2060 nM, the TGI [28] was > 5000 nM and the GI50 [29] was 1380 nM. For the same molecule, the TGI [29] was > 5000 nM, the GI50 [30] was 1510 nM and the TGI [30] was > 5000 nM. The GI50 [31] was 1040 nM, the TGI [31] was > 5000 nM and the GI50 [32] was > 5000 nM. For the same molecule, the TGI [32] was > 5000 nM, the GI50 [33] was 1680 nM and the TGI [33] was > 5000 nM. For the same molecule, the GI50 [34] was 1580 nM, the TGI [34] was > 5000 nM and the GI50 [35] was > 4670 nM. The TGI [35] was > 5000 nM, the GI50 [36] was > 4250 nM and the TGI [36] was > 5000 nM. For the same molecule, the GI50 [37] was 1980 nM, the TGI [37] was > 5000 nM and the GI50 [38] was 1160 nM. For the same molecule, the TGI [38] was 4000 nM, the GI50 [39] was 2630 nM and the TGI [39] was > 5000 nM. For the same molecule, the GI50 [40] was 2240 nM, the TGI [40] was > 5000 nM and the GI50 [41] was 1640 nM. For the same molecule, the TGI [41] was > 5000 nM, the GI50 [42] was 2280 nM and the TGI [42] was > 5000 nM. For the same molecule, the GI50 [43] was 1440 nM, the TGI [43] was > 5000 nM and the GI50 [44] was 199 nM. The TGI [44] was 1370 nM, the GI50 [45] was 1100 nM and the TGI [45] was > 3140 nM. The GI50 [46] was > 5000 nM, the TGI [46] was > 5000 nM and the GI50 [47] was 1820 nM. For the same molecule, the TGI [47] was > 5000 nM, the GI50 [48] was 1790 nM and the TGI [48] was > 5000 nM. The GI50 [49] was 1070 nM, the TGI [49] was > 5000 nM and the GI50 [50] was 3370 nM. For the same molecule, the TGI [50] was > 5000 nM, the GI50 [51] was 1650 nM and the TGI [51] was > 5000 nM. For the same molecule, the GI50 [52] was 1260 nM, the TGI [52] was > 5000 nM and the GI50 [53] was 3430 nM. For the same molecule, the TGI [53] was > 5000 nM, the GI50 [54] was 2190 nM and the TGI [54] was > 5000 nM. The GI50 [55] was 446 nM, the TGI [55] was 2670 nM and the GI50 [56] was 609 nM. The TGI [56] was > 5000 nM, the GI50 [57] was > 3960 nM and the TGI [57] was > 5000 nM.

Source: PubChem BioAssay (NCI)
